{"source": "paper PMC5647378", "about": "“Structural and Mechanistic Analysis of Drosophila melanogaster Agmatine N-Acetyltransferase, an Enzyme that Catalyzes the Formation of N-Acetylagmatine” (Scientific Reports, 2017)", "key": {"Glu34": {"biological_target": "Glu34 (UniProt position 34, HYYPEEPLTAG)", "experiment": "kinetics", "conditions": "22 °C; MES (pH 6.5 and 7.0), Tris (pH 7.0-9.0), AmeP (pH 9.0 and 9.5). Concentrations for the pH series not stated (standard assay is 300 mM Tris with 150 µM DTNB).; Steady-state turnover; acetyl-CoA varied, agmatine as co-substrate (5 mM saturating in the standard assay); wild-type enzyme, triplicate"}, "[1]": {"biological_target": "T1, Drosophila melanogaster AgmNAT (CG15766), wild-type (Drosophila melanogaster, UniProt Q9W469)", "T1 sequence (Q9W469 entry or part of it)": "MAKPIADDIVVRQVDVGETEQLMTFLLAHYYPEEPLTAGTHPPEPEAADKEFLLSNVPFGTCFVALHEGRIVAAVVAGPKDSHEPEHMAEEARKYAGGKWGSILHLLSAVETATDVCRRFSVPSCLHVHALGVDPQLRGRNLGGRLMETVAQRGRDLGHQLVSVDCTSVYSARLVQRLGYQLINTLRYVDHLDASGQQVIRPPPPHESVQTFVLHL", "experiment": "AgmNAT steady-state kinetics, coenzyme A release with Ellman's reagent (DTNB)", "format": "biochemical", "procedure": "(§1) Steady-state kinetic constants for AgmNAT were determined by measuring the rate of coenzyme A release using Ellman’s reagent (DTNB) at 412 nm (molar absorptivity = 13,600 M^−1 cm^−1)[15]–[17]. […] Initial velocities were measured using a Cary 300 Bio UV-Visible spectrophotometer at 22 °C. Acyl-CoA kinetic constants were evaluated by holding the concentration of agmatine at a constant saturating concentration (5 mM). […] The apparent kinetic constants were determined by fitting the resulting data to equation 1 using SigmaPlot 12.0, where vo is the initial velocity, Vmax,app is the apparent maximal velocity, [S] is the substrate concentration, and Km,app is the apparent Michaelis constant. Each assay was performed in triplicate and the uncertainty for the kcat,app and (kcat/Km)app values were calculated using equation 2, where σ is the standard error.1 vo=Vmax,app[S]/Km,app+[S] 2 σ(x/y)=x/y(σx/x)^2+(σy/y)^2"}, "AgmNAT E34A mutant": {"biological_target": "T2, AgmNAT E34A mutant (Drosophila melanogaster, UniProt Q9W469, E34A)", "T2 sequence (Q9W469 1-216 E34A)": "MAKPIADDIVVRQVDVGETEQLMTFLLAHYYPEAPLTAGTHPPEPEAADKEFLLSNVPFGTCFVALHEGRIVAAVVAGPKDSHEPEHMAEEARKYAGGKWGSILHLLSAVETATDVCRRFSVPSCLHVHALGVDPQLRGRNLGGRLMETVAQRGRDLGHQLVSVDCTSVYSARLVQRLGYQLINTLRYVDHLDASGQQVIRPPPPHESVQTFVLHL", "experiment": "Steady-state kinetics of AgmNAT site-directed mutant E34A", "format": "biochemical", "conditions": "for (kcat/Km)app–mutant/(kcat/Km)app–wild–type×100: E34A", "procedure": "(§2) Site-directed mutants of AgmNAT were constructed by the overlap extension method. Using the primers shown in Table S1, each mutant was amplified using pfuUltra High-Fidelity DNA polymerase with the following PCR conditions: initial denaturing step of 95 °C for 2 min, then 30 cycles of 95 °C for 30 s; 60 °C annealing temperature for 30 s; 72 °C extension step for 1 min; then a final extension step of 72 °C for 10 min. Following the amplification of the AgmNAT site-directed mutant, the sub-cloning, expression, and purification procedures are the same as discussed for the wild-type enzyme.\nas §1"}, "AgmNAT P35A mutant": {"biological_target": "T3, AgmNAT P35A mutant (Drosophila melanogaster, UniProt Q9W469, P35A)", "T3 sequence (Q9W469 1-216 P35A)": "T2 sequence (Q9W469 1-216 E34A) with A34E, P35A", "experiment": "Steady-state kinetics of AgmNAT site-directed mutant P35A", "format": "biochemical", "procedure": "as §2\nas §1, with “Each assay was performed in triplicate and the uncertainty for the kcat,app and (kcat/Km)app values were calculated using equation 2, where σ is the standard error.1 vo=Vmax,app[S]/Km,app+[S] 2 σ(x/y)=x/y(σx/x)^2+(σy/y)^2” left out"}, "AgmNAT S171A mutant": {"biological_target": "T4, AgmNAT S171A mutant (Drosophila melanogaster, UniProt Q9W469, S171A)", "T4 sequence (Q9W469 1-216 S171A)": "T2 sequence (Q9W469 1-216 E34A) with A34E, S171A", "experiment": "Steady-state kinetics of AgmNAT site-directed mutant S171A", "format": "biochemical", "conditions": "for (kcat/Km)app–mutant/(kcat/Km)app–wild–type×100: S171A", "procedure": "as §2, §1"}, "AgmNAT H206A mutant": {"biological_target": "T5, AgmNAT H206A mutant (Drosophila melanogaster, UniProt Q9W469, H206A)", "T5 sequence (Q9W469 1-216 H206A)": "T2 sequence (Q9W469 1-216 E34A) with A34E, H206A", "experiment": "Steady-state kinetics of AgmNAT site-directed mutant H206A", "format": "biochemical", "conditions": "for increase of Km,app versus wild-type: H206A mutant; for (kcat/Km)app–mutant/(kcat/Km)app–wild–type×100: H206A", "procedure": "as §2, §1"}, "[2]": {"biological_target": "T1, Drosophila melanogaster AgmNAT (CG15766), wild-type", "experiment": "AgmNAT dead-end and product inhibition analysis", "format": "biochemical", "procedure": "Initial velocities were determined by varying the concentration of one substrate, while holding the other substrate at a fixed concentration. […] The resulting initial velocity data was fit to equation 3 for an ordered Bi-Bi mechanism and equation 4 for a ping pong mechanism using IGOR Pro 6.34 A, where vo is the initial velocity, Vmax is the maximal velocity, Kia is the dissociation constant for substrate A, Kb is the Michaelis constant for substrate B, Ka is the Michaelis constant for substrate A, [A] is the concentration of substrate A, and [B] is the concentration of substrate B.3 vo=Vmax[A][B]/KiaKb+Ka[B]+Kb[A]+[A][B] 4 vo=Vmax[A][B]/Ka[B]+Kb[A]+[A][B]\nInhibition experiments by either substrate analogs or N-acetylagamatine were used to discriminate between an ordered, random sequential, or ping pong kinetic mechanism. […] Initial velocity patterns were generated by varying the concentration of one substrate, holding the other substrate concentration at its apparent Km, and changing the concentration of inhibitor for each data set in triplicate. The resulting data was fit to equations 5–7, for competitive, noncompetitive, and uncompetitive inhibition respectively using SigmaPlot 12.0. For […], vo is the initial velocity, Vmax,app is the apparent maximal velocity, Km,app is the apparent Michaelis constant, [S] is the substrate concentration, [I] is the inhibitor concentration, and Ki is the inhibition constant.5 vo=Vmax,app[S]/Km,app(1+[I]/Ki)+[S] 6 vo=Vmax,app[S]/Km,app(1+[I]/Ki)+[S](1+[I]/Ki) 7 vo=Vmax,app[S]/Km,app+[S](1+[I]/Ki)"}, "[3]": {"biological_target": "T1, Drosophila melanogaster AgmNAT (CG15766), wild-type", "experiment": "AgmNAT dead-end and product inhibition analysis", "format": "biochemical", "conditions": "inhibitor at 10 mM"}}, "note": "Substitutions are numbered along the chain they refer to. “And” between values parts separate entries of the source, which are not always exact repeats. Identical values can stand only once. Like-named read-outs stand apart in the source and are kept apart here.", "data": [{"compound": "Agmatine N-acetyltransferase (AgmNAT; formerly arylalkylamine N-acetyltransferase-like 8, AANATL8) (Drosophila melanogaster)", "values": [{"measurement": "pKa", "setting": "Glu34", "value": "7.7 ± 0.1 and 7.3 ± 0.2 and ~7.5"}]}, {"compound": "CC(=O)SCCNC(=O)CCNC(=O)[C@H](O)C(C)(C)COP(=O)(O)OP(=O)(O)OC[C@H]1O[C@@H](n2cnc3c(N)ncnc32)[C@H](O)[C@@H]1OP(=O)(O)O", "note": "[Acetyl-CoA]", "values": [{"measurement": "(kcat/Km)app–mutant/(kcat/Km)app–wild–type×100", "setting": "[1]; Wild-type, acetyl-CoA varied", "value": 100, "unit": "%"}, {"measurement": "kcat,app", "setting": "[1]; Wild-type, acetyl-CoA varied, saturating agmatine, pH 8.5", "value": "23 ± 1", "unit": "s⁻¹"}, {"measurement": "kcat,app", "setting": "[1]; acyl-CoA varied, 5 mM agmatine, 300 mM Tris-HCl pH 8.5, 150 µM DTNB", "value": "23 ± 1", "unit": "s⁻¹"}, {"measurement": "Km", "setting": "[1]; acyl-CoA varied, 5 mM agmatine, 300 mM Tris-HCl pH 8.5, 150 µM DTNB, read-out: Km,app", "value": 100, "unit": "µM"}, {"measurement": "decrease of Km,app versus wildtype", "setting": "AgmNAT E34A mutant; E34A mutant, acetyl-CoA", "value": 6, "unit": "fold"}, {"measurement": "(kcat/Km)app–mutant/(kcat/Km)app–wild–type×100", "setting": "AgmNAT E34A mutant; acetyl-CoA varied", "value": 0.27, "unit": "%"}, {"measurement": "(kcat/Km)app–mutant/(kcat/Km)app–wild–type×100", "setting": "AgmNAT P35A mutant; acetyl-CoA varied", "value": 0.86, "unit": "%"}, {"measurement": "change (decrease) of Km,app versus wildtype", "setting": "AgmNAT S171A mutant; S171A mutant, acetyl-CoA", "value": "3- to 4 fold"}, {"measurement": "(kcat/Km)app–mutant/(kcat/Km)app–wild–type×100", "setting": "AgmNAT S171A mutant; acetyl-CoA varied", "value": 34, "unit": "%"}, {"measurement": "increase of Km,app versus wild-type", "setting": "AgmNAT H206A mutant; acetyl-CoA", "value": 2.3, "unit": "fold"}, {"measurement": "(kcat/Km)app–mutant/(kcat/Km)app–wild–type×100", "setting": "AgmNAT H206A mutant; acetyl-CoA varied", "value": 2.3, "unit": "%"}]}, {"compound": "COC(=O)[C@@H](N)CCCN=C(N)N", "note": "[Arginine methyl ester, L-arginine methyl ester]", "values": [{"measurement": "acceptance as amine substrate", "setting": "[1]; amine substrate screen with acetyl-CoA", "value": "not AgmNAT substrates"}, {"measurement": "Ki", "setting": "[2]; varied substrate acetyl-CoA, constant agmatine (0.3 mM), listed as arginine methyl ester, read-out: Ki,i", "value": "≥ 1000", "unit": "µM"}, {"measurement": "Ki", "setting": "[2]; varied substrate acetyl-CoA, constant agmatine (0.3 mM), read-out: Ki,i", "value": "2900 ± 100", "unit": "µM"}, {"measurement": "Ki", "setting": "[2]; varied substrate agmatine, constant acetyl-CoA (0.1 mM; 104 µM), listed as arginine methyl ester, read-out: Ki,s", "value": "≥ 1000", "unit": "µM"}, {"measurement": "Ki", "setting": "[2]; varied substrate agmatine, constant acetyl-CoA (0.1 mM; 104 µM), read-out: Ki,s", "value": "1500 ± 100", "unit": "µM"}, {"measurement": "type of inhibition plot (in words)", "setting": "[2]; versus acetyl-CoA", "value": "uncompetitive"}, {"measurement": "type of inhibition plot (in words)", "setting": "[2]; versus agmatine", "value": "competitive"}, {"measurement": "decrease of the rate of N-acetylagmatine formation from acetyl-CoA and agmatine", "setting": "[3]", "value": "~ 50%"}]}, {"compound": "NCCCCN=C(N)N", "note": "[Agmatine, (4-aminobutyl)guanidine]", "values": [{"measurement": "(kcat/Km)app–mutant/(kcat/Km)app–wild–type×100", "setting": "[1]; Wild-type, agmatine varied", "value": 100, "unit": "%"}, {"measurement": "increase of Km,app versus wildtype", "setting": "AgmNAT E34A mutant; E34A mutant, agmatine", "value": 20, "unit": "fold"}, {"measurement": "(kcat/Km)app–mutant/(kcat/Km)app–wild–type×100", "setting": "AgmNAT E34A mutant; agmatine varied", "value": 0.0038, "unit": "%"}, {"measurement": "(kcat/Km)app–mutant/(kcat/Km)app–wild–type×100", "setting": "AgmNAT P35A mutant; agmatine varied", "value": 3.2, "unit": "%"}, {"measurement": "change (increase) of Km,app versus wildtype", "setting": "AgmNAT S171A mutant; S171A mutant, agmatine", "value": "3- to 4 fold"}, {"measurement": "(kcat/Km)app–mutant/(kcat/Km)app–wild–type×100", "setting": "AgmNAT S171A mutant; agmatine varied", "value": 2.7, "unit": "%"}, {"measurement": "increase of Km,app versus wild-type", "setting": "AgmNAT H206A mutant; agmatine", "value": 1.4, "unit": "fold"}, {"measurement": "(kcat/Km)app–mutant/(kcat/Km)app–wild–type×100", "setting": "AgmNAT H206A mutant; agmatine varied", "value": 4.7, "unit": "%"}]}]}
